Data from patent US20230108906A1, “SUBSTITUTED BICYCLIC AND TRICYCLIC UREAS AND AMIDES, ANALOGUES THEREOF, AND METHODS USING SAME” (Arbutus Biopharma Corporation, priority 2019, published 2023).

These molecules were tested on HBV rcDNA in HepDE19 cells (assay: HepDE19 assay with bDNA quantitation of HBV rcDNA). Conditions: Hepatitis B virus, HepDE19, 168 h, inhibition of rcDNA formation in HepDE19 cells (HepG2 derived), Tet-free medium, 7 day incubation, Quantigene 2.0 bDNA readout, top concentration 25 μM; read-out: DE-19bDNA EC50.
Format: cell-based, hepatitis B virus (HBV)
Summary of the method: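 Cytotoxicity run on replicate plates (5,000 cells/well, 4 days, ATP luminescence, CC50), while antiviral plates (50,000 cells/well) received compound for 7 days after tetracycline withdrawal to induce HBV replication. Top dose 25 μM, 8 points, 0.5% DMSO; rcDNA by branched-DNA assay, % inhibition fitted (4-parameter) for EC50 and EC90.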

Structure (SMILES) | EC50 [nM]
CC(C)CN(C(=O)Nc1ccc(F)c(Cl)c1)C1CCc2[nH]c(=O)c3ccccc3c21 (stereo not drawn) [Compound 13, 3-(3-Chloro-4-fluorophenyl)-1-isobutyl-1-(5-oxo-2,3,4,5-tetrahydro-1H-cyclopenta[c]isoquinolin-1-yl)urea] | 1300
CN(C(=O)Nc1ccc(F)c(C#N)c1)C1COCc2[nH]c(=O)c3cc(Cl)ccc3c21 (stereo not drawn) [Compound 65, 1-(8-Chloro-6-oxo-1,4,5,6-tetrahydro-2H-pyrano[3,4-c]isoquinolin-1-yl)-3-(3-cyano-4-fluorophenyl)-1-methylurea] | 80
CC(C)CN(C(=O)Nc1ccc(F)c(F)c1)C1CCc2[nH]c(=O)cc(C(F)(F)F)c21 (stereo not drawn) [Compound 5, 3-(3,4-Difluorophenyl)-1-isobutyl-1-(2-oxo-4-(trifluoromethyl)-2,5,6,7-tetrahydro-1H-cyclopenta[b]pyridin-5-yl)urea] | 1100
Cc1cc(NC(=O)N(C)C2COCc3[nH]c(=O)c4ccc(F)cc4c32)ccc1F (stereo not drawn) [Compound 75, 3-(4-Fluoro-3-methylphenyl)-1-(9-fluoro-6-oxo-1,4,5,6-tetrahydro-2H-pyrano[3,4-c]isoquinolin-1-yl)-1-methylurea] | 20
CCN(C(=O)Nc1ccc(F)c(C)c1)C1COCc2[nH]c(=O)c3ccc(F)cc3c21 (stereo not drawn) [Compound 76, 1-Ethyl-3-(4-fluoro-3-methylphenyl)-1-(9-fluoro-6-oxo-1,4,5,6-tetrahydro-2H-pyrano[3,4-c]isoquinolin-1-yl)urea] | 10
CN(C(=O)Nc1ccc(F)c(Cl)c1)[C@@H]1COCc2nc(OCCO)c3cc(F)c(F)cc3c21 [Compound 255, (S)-3-(3-Chloro-4-fluorophenyl)-1-(8,9-difluoro-6-(2-hydroxyethoxy)-1,4-dihydro-2H-pyrano[3,4-c]isoquinolin-1-yl)-1-methylurea] | 49
CN(C(=O)Nc1ccc(F)c(Cl)c1)C1CCCc2[nH]c(=O)c3cc(F)ccc3c21 (stereo not drawn) [Compound 9, 3-(3-Chloro-4-fluorophenyl)-1-(8-fluoro-6-oxo-1,2,3,4,5,6-hexahydrophenanthridin-1-yl)-1-methylurea] | 30
CN(C(=O)N1Cc2ccc(Br)cc2C1)[C@@H]1COCc2[nH]c(=O)c3cc(F)c(F)cc3c21 [Compound 220, (S)-5-Bromo-N-(8,9-difluoro-6-oxo-1,4,5,6-tetrahydro-2H-pyrano[3,4-c]isoquinolin-1-yl)-N-methylisoindoline-2-carboxamide] | 13000

Same assay, conditions: inhibition of rcDNA formation in HepDE19 cells (HepG2 derived), Tet-free medium, 7 day incubation, Quantigene 2.0 bDNA readout, top concentration 25 μM; read-out: DE-19bDNA EC50

Structure (SMILES) | EC50 [nM]
CN(C(=O)Nc1cc(F)c(F)c(Cl)c1)C1COCc2[nH]c(=O)c3cc(F)ccc3c21 (single isomer, unassigned) [Compound 108, 3-(3-Chloro-4,5-difluorophenyl)-1-(8-fluoro-6-oxo-1,4,5,6-tetrahydro-2H-pyrano[3,4-c]isoquinolin-1-yl)-1-methylurea] | 20
CC(C)CN(C(=O)Nc1ccc(F)c(F)c1)C1COCc2[nH]c(=O)c3cc(F)ccc3c21 (single isomer, unassigned) [Compound 99, 3-(3,4-Difluorophenyl)-1-(8-fluoro-6-oxo-2,4,5,6-tetrahydro-1H-pyrano[3,4-c]isoquinolin-1-yl)-1-isobutylurea] | 10
CNc1nc2c(c3cc(F)c(F)cc13)C(N(C)C(=O)Nc1ccc(F)c(Cl)c1)COC2 (single isomer, unassigned) [Compound 241, 3-(3-Chloro-4-fluorophenyl)-1-(8,9-difluoro-6-(methylamino)-1,4-dihydro-2H-pyrano[3,4-c]isoquinolin-1-yl)-1-methylurea] | 2380
CN(C(=O)Nc1ccc(F)c(C#N)c1)C1C[S+]([O-])Cc2[nH]c(=O)c3cc(F)ccc3c21 (single isomer, unassigned) [Compound 201, 3-(3-Cyano-4-fluorophenyl)-1-(8-fluoro-3-oxido-6-oxo-1,4,5,6-tetrahydro-2H-thiopyrano[3,4-c]isoquinolin-1-yl)-1-methylurea] | 3600
CN(C(=O)Nc1ccc(F)c(C#N)c1)C1C[S+]([O-])Cc2[nH]c(=O)c3cc(F)ccc3c21 (single isomer, unassigned) [Compound 199, 3-(3-Cyano-4-fluorophenyl)-1-(8-fluoro-3-oxido-6-oxo-1,4,5,6-tetrahydro-2H-thiopyrano[3,4-c]isoquinolin-1-yl)-1-methylurea] | 20000
CNc1nc2c(c3cc(F)c(F)cc13)C(N(C)C(=O)Nc1ccc(F)c(C(F)F)c1)COC2 (single isomer, unassigned) [Compound 236, 1-(8,9-Difluoro-6-(methylamino)-1,4-dihydro-2H-pyrano[3,4-c]isoquinolin-1-yl)-3-(3-(difluoromethyl)-4-fluorophenyl)-1-methylurea] | 10
CN(C(=O)Nc1ccc(F)c(C#N)c1)C1C[S+]([O-])Cc2[nH]c(=O)c3cc(F)c(F)cc3c21 (single isomer, unassigned) [Compound 211, 3-(3-Cyano-4-fluorophenyl)-1-(8,9-difluoro-3-oxido-6-oxo-1,4,5,6-tetrahydro-2H-thiopyrano[3,4-c]isoquinolin-1-yl)-1-methylurea] | 5500
CN(C(=O)Nc1ccc(F)c(Cl)c1)C1CCCc2[nH]c(=O)c3c(c21)CCCC3 (single isomer, unassigned) [Compound 47, 3-(3-Chloro-4-fluorophenyl)-1-methyl-1-(6-oxo-1,2,3,4,5,6,7,8,9,10-decahydrophenanthridin-1-yl)urea] | 60
CN(C(=O)Nc1ccc(F)c(F)c1)C1CCCc2[nH]c(=O)c3c(c21)CCOC3 (single isomer, unassigned) [Compound 63, 3-(3,4-Difluorophenyl)-1-methyl-1-(5-oxo-1,4,5,6,7,8,9,10-octahydro-2H-pyrano[3,4-c]quinolin-10-yl)urea] | 3100
CN(C(=O)Nc1cc(Cl)c(F)c(Cl)c1)C1COCc2[nH]c(=O)c3cc(F)ccc3c21 (single isomer, unassigned) [Compound 97, 3-(3,5-Dichloro-4-fluorophenyl)-1-(8-fluoro-6-oxo-1,4,5,6-tetrahydro-2H-pyrano[3,4-c]isoquinolin-1-yl)-1-methylurea] | 3300
CN(C(=O)Nc1ccc(F)c(C#N)c1)C1CNCc2[nH]c(=O)c3cc(F)c(F)cc3c21 (single isomer, unassigned) [Compound 175, 3-(3-Cyano-4-fluorophenyl)-1-(8,9-difluoro-6-oxo-1,2,3,4,5,6-hexahydrobenzo[c][1,7]naphthyridin-1-yl)-1-methylurea] | 1500
CN(C(=O)Nc1ccc(F)c(C#N)c1)C1CNCc2[nH]c(=O)c3cc(F)c(F)cc3c21 (single isomer, unassigned) [Compound 176, 3-(3-Cyano-4-fluorophenyl)-1-(8,9-difluoro-6-oxo-1,2,3,4,5,6-hexahydrobenzo[c][1,7]naphthyridin-1-yl)-1-methylurea] | 50
CN1Cc2[nH]c(=O)c3cc(F)ccc3c2C(N(C)C(=O)Nc2ccc(F)c(C#N)c2)C1 (single isomer, unassigned) [Compound 163, 3-(3-Cyano-4-fluorophenyl)-1-(8-fluoro-3-methyl-6-oxo-1,2,3,4,5,6-hexahydrobenzo[c][1,7]naphthyridin-1-yl)-1-methylurea] | 23000
CN(C(=O)Nc1ccc(F)c(Cl)c1)C1C[S+]([O-])Cc2[nH]c(=O)c3cc(F)ccc3c21 (single isomer, unassigned) [Compound 194, 3-(3-Chloro-4-fluorophenyl)-1-(8-fluoro-3-oxido-6-oxo-1,4,5,6-tetrahydro-2H-thiopyrano[3,4-c]isoquinolin-1-yl)-1-methylurea] | ≥ 25000
CN(C(=O)Nc1ccc(F)c(Cl)c1)C1CN(CCO)Cc2[nH]c(=O)c3cc(F)c(F)cc3c21 (single isomer, unassigned) [Compound 179, 3-(3-Chloro-4-fluorophenyl)-1-(8,9-difluoro-3-(2-hydroxyethyl)-6-oxo-1,2,3,4,5,6-hexahydrobenzo[c][1,7]naphthyridin-1-yl)-1-methylurea] | 7300
CN(C(=O)Nc1ccc(F)c(Cl)c1)C1CNCc2[nH]c(=O)c3cc(F)c(F)cc3c21 (single isomer, unassigned) [Compound 150, 3-(3-Chloro-4-fluorophenyl)-1-(8,9-difluoro-6-oxo-1,2,3,4,5,6-hexahydrobenzo[c][1,7]naphthyridin-1-yl)-1-methylurea] | 10
CC(C)(O)CN(C(=O)Nc1ccc(F)c(Cl)c1)C1COCc2[nH]c(=O)c3cc(F)ccc3c21 (single isomer, unassigned) [Compound 111, 3-(3-Chloro-4-fluorophenyl)-1-(8-fluoro-6-oxo-1,4,5,6-tetrahydro-2H-pyrano[3,4-c]isoquinolin-1-yl)-1-(2-hydroxy-2-methylpropyl)urea] | 200

Same assay, conditions: read-out: DE-19bDNA EC50; inhibition of rcDNA formation in HepDE19 cells (HepG2 derived), Tet-free medium, 7 day incubation, Quantigene 2.0 bDNA readout, top concentration 25 μM

Structure (SMILES) | EC50 [nM]
CN(C(=O)Nc1cccc(Cl)c1)C1COCc2[nH]c(=O)c3cc(F)c(F)cc3c21 (single isomer, unassigned) [Compound 120, 3-(3-Chlorophenyl)-1-(8,9-difluoro-6-oxo-1,4,5,6-tetrahydro-2H-pyrano[3,4-c]isoquinolin-1-yl)-1-methylurea] | 10
CN(C(=O)Nc1cccc(Cl)c1)C1COCc2[nH]c(=O)c3cc(F)c(F)cc3c21 (single isomer, unassigned) [Compound 119, 3-(3-Chlorophenyl)-1-(8,9-difluoro-6-oxo-1,4,5,6-tetrahydro-2H-pyrano[3,4-c]isoquinolin-1-yl)-1-methylurea] | 1800
